{"source": "paper PMC4890785", "about": "“Recombinant L-Asparaginase from Zymomonas mobilis: A Potential New Antileukemic Agent Produced in Escherichia coli” (PLoS ONE, 2016)", "biological_target": "T1, L-asparaginase from Z. mobilis (L-AspZ) (Zymomonas mobilis, UniProt Q5NLV3)", "T1 construct": "gene ZMO1683; first 29 residues (signal peptide) removed; codon-optimised gene in E. coli BL21(DE3): pET26b (pelB, extracellular) or pET28a (cytoplasmic); not purified", "T1 sequence (Q5NLV3 entry or part of it)": "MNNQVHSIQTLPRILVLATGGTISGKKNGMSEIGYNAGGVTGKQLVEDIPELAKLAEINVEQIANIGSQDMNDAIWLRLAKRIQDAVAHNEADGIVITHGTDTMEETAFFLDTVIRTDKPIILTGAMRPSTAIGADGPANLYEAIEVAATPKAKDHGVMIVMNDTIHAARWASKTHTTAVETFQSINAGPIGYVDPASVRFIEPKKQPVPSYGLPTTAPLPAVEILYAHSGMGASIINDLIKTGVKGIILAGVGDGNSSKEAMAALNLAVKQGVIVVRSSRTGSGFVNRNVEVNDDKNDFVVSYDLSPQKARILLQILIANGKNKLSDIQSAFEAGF", "experiment": "ammonia release, salicylate-hypochlorite (indophenol) colorimetry", "type": "biochemical", "conditions": "sonicated E. coli lysate or concentrated culture medium; 37 °C, pH 7.3, 20 mM sodium phosphate; asparagine stock 5 g/L mixed 1:1; uninduced control tested"}
{"smiles": "NC(=O)C[C@H](N)C(=O)O", "note": "[asparagine]", "values": [{"measurement": "ammonia release, salicylate-hypochlorite (indophenol) colorimetry", "value": "Enzyme activity was measured by hydrolyzing asparagine to aspartate and ammonia"}]}
